Reference: patent US11999715B2, “ASK1 inhibiting agents” (BIOGEN MA INC., priority 2018, dated 2024)

Tests used:
ASK1/MAP3K5 = molecular target: T1, ASK1/MAP3K5 (Homo sapiens, UniProt Q99683); test: ASK1/MAP3K5 kinase assay by Reaction Biology Corp. (headed ASK1 TR-FRET Assay); format: biochemical; settings: 20 μM myelin basic protein, 10 μM ATP, class symbols
T1 sequence (Q99683 1-1374): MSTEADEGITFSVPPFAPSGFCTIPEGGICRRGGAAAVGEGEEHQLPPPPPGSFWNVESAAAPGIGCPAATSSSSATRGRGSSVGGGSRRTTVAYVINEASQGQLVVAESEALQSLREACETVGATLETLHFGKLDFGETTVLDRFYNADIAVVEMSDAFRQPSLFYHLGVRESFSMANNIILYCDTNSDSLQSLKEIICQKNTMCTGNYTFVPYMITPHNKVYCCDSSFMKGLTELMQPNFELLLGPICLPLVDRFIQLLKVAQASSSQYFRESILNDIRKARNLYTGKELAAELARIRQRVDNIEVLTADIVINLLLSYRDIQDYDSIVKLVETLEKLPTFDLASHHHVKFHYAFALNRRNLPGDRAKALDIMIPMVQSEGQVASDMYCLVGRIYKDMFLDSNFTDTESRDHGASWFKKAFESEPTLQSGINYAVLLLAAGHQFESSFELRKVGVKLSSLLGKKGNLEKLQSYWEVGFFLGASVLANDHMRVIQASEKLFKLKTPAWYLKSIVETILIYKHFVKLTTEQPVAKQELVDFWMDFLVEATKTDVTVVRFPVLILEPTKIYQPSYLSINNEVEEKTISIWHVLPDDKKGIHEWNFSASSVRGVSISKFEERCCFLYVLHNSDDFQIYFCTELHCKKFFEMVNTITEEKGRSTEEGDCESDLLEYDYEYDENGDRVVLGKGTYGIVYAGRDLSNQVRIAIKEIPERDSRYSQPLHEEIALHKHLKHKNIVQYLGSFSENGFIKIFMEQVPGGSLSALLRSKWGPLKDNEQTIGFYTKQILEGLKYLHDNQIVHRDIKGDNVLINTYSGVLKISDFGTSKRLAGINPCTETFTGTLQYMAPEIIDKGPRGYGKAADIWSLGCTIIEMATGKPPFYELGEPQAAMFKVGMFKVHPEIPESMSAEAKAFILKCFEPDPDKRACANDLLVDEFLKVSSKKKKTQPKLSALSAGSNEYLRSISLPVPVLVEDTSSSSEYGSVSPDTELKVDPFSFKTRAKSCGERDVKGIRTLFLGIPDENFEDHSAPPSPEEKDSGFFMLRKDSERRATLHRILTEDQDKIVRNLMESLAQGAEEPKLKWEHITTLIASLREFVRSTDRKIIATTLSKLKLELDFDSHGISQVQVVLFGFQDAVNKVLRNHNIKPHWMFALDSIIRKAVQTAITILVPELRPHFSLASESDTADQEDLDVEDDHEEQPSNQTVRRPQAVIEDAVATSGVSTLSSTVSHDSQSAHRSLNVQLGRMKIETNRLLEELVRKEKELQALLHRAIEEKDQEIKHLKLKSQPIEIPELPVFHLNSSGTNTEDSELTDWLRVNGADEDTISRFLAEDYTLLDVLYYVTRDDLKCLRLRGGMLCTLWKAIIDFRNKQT
Method: Example 111: Brief Description of ASK1 TR-FRET Assay The protein kinase inhibitory activity of the compounds described herein were tested using the ASK1/MAP3K5 assay by Reaction Biology Corp. (Malvern, PA). The assay procedure follows (and is also available on the Reaction Biology Corp. website). Base Reaction Buffer: 20 mM Hepes (pH 7.5), 10 mM MgCl2, 1 mM EGTA, 0.02% Brij35, 0.02 mg/mL BSA, 0.1 mM Na3VO4, 2 mM DTT, 1% DMSO; Substrate: 20 μM of myelin basic protein (MBP) and 10 μM ATP; Protein kinase: ASK1/MAP3K5. Reaction Procedure: • 1. Prepare indicated substrate in freshly prepared Base Reaction Buffer. • 2. Deliver any required cofactors to the substrate solution. • 3. Deliver indicated kinase into the substrate solution and gently mix. • 4. Deliver compounds in DMSO into the kinase reaction mixture by Acoustic; technology (Echo550; nanoliter range), incubate for 20 minutes at room temperature. • 5. Deliver ^33P-ATP (specific activity 10 μCi/μL) into the reaction mixture to initiate the reaction. • 6. Incubate kinase reaction for 2 hours at room temperature. • 7. Reactions are spotted onto P81 ion exchange paper. • 8. Detect kinase activity by filter-binding method.

[1] = molecular target: T2, ASK1 T838 auto phosphorylation (Homo sapiens, UniProt Q99683); test: ASK1 (AUTO PHOS T838) assay, MSD format, in HEK-293T cells transfected with ASK1-V5; format: cell-based; settings: ASK1 T838 auto phosphorylation in HEK-293T cells, 1 hr compound incubation; class symbols
T2 sequence (Q99683 1-1374): T1 sequence (Q99683 1-1374)
Method: Example 112: Brief Description of ASK1(AUTO PHOS T838) Assay ASK1 T838 auto phosphorylation was measured in HEK-293T cells using MSD assay format. HEK 293T cells were seeded in 15 cm plates at a density of 18 million cells and 20 mL DMEM with 10% FBS, Pen/Strep media. The plates were incubated at 37° C. overnight. Media on plates was changed to OPTI-MEM, serum free media and cells were transfected with 9 μg of ASK1-V5 tagged full length plasmid using Lipofectamine 2000 (Invitrogen) and the plates were incubated at 37° C. overnight. Cells were trypsinized, counted on Nexcellometer and plated into 96 well tissue culture plates with 100,000 cells/well and 200 μL media. Cells were incubated for 4 hr at 37° C. then ASK1 compounds were added using a HP 300e. Compounds were tested at 20 μM with 3 fold, 10 point dilution points then incubated for 1 hr at 37° C. A lysis buffer (Cell Signaling) was prepared with protease and phosphatase inhibitor and maintained at 4° C. until use. Media from cells was discarded and 120 μL of cold lysis buffer was added to the cells, the plate was shaken 4° C. for 1 hr. Lysate was mixed using Apricot liquid handler; aspirating up and down 16 times at high speed using 50 μL volume. […] Plates were then incubated on a plate shaker overnight at 4° C. Plates were washed 3× with MSD wash buffer and 50 μL of rabbit anti-pASK1 T838 antibody was added to the wells and incubated for 2 hr at room temperature on a plate shaker. Plates were then washed and 50 μL of goat anti-rabbit sulfa-tag (1:500 dilution) was added to wells, and incubated for 1 hr at room temperature on a plate shaker. […] Plates were immediately read on a MSD Instrument Reader where chemoluminescence signal was measured. Data was analyzed using Graph Pad or Genedata, the data was normalized and plotted, % activity versus log of compound concentration. The IC50 values were obtained from a 4 parameter fit. The compounds described herein were tested for in the above cell-based assay.

COc1nn(C)cc1C(=O)Nc1cccc(-c2nncn2[C@@H](C)C(F)(F)F)n1 [Example 12, (S)-3-Methoxy-1-methyl-N-(6-(4-(1,1,1-trifluoropropan-2-yl)-4H-1,2,4-triazol-3-yl)pyridin-2-yl)-1H-pyrazole-4-carboxamide]
IC50 (ASK1/MAP3K5): ≤ 0.1 µM | IC50 [1]: ≤ 1 µM

CCn1cc(C(=O)Nc2cccc(-c3nncn3C(C)C(F)(F)F)n2)c(OC)n1 (centres unmarked) [Example 13, 1-Ethyl-3-methoxy-N-(6-(4-(1,1,1-trifluoropropan-2-yl)-4H-1,2,4-triazol-3-yl)pyridin-2-yl)-1H-pyrazole-4-carboxamide]
IC50 (ASK1/MAP3K5): ≤ 0.1 µM | IC50 [1]: ≤ 1 µM

COCc1nn(C)cc1C(=O)Nc1cccc(-c2nncn2[C@@H](C)C(F)(F)F)n1 [Example 14]
IC50 (ASK1/MAP3K5): 0.1 to 1 µM | IC50 [1]: ≤ 1 µM

CCn1cc(C(=O)Nc2cccc(-c3nncn3[C@@H](C)C(F)(F)F)n2)c(OC)n1 [Example 15, (S)-1-Ethyl-3-methoxy-N-(6-(4-(1,1,1-trifluoropropan-2-yl)-4H-1,2,4-triazol-3-yl)pyridin-2-yl)-1H-pyrazole-4-carboxamide]
IC50 (ASK1/MAP3K5): ≤ 0.1 µM | IC50 [1]: ≤ 1 µM

CCOc1nn(C)cc1C(=O)Nc1cccc(-c2nncn2[C@@H](C)C(F)(F)F)n1 [Example 16, (S)-3-Ethoxy-1-methyl-N-(6-(4-(1,1,1-trifluoropropan-2-yl)-4H-1,2,4-triazol-3-yl)pyridin-2-yl)-1H-pyrazole-4-carboxamide]
IC50 (ASK1/MAP3K5): ≤ 0.1 µM | IC50 [1]: ≤ 1 µM

COc1nn(C)cc1C(=O)Nc1cccc(-c2nncn2C2CCC2)n1 [Example 17, N-(6-(4-Cyclobutyl-4H-1,2,4-triazol-3-yl)pyridin-2-yl)-3-methoxy-1-methyl-1H-pyrazole-4-carboxamide]
IC50 (ASK1/MAP3K5): ≤ 0.1 µM | IC50 [1]: ≤ 1 µM

COc1nn(C)cc1C(=O)Nc1cccc(-c2nncn2C2CC2)n1 [Example 18, N-(6-(4-Cyclopropyl-4H-1,2,4-triazol-3-yl)pyridin-2-yl)-3-methoxy-1-methyl-1H-pyrazole-4-carboxamide]
IC50 (ASK1/MAP3K5): ≤ 0.1 µM | IC50 [1]: ≤ 1 µM

COc1nn(C)cc1C(=O)Nc1cccc(-c2nncn2C2CC(F)(F)C2)n1 [Example 19, N-(6-(4-(3,3-Difluorocyclobutyl)-4H-1,2,4-triazol-3-yl)pyridin-2-yl)-3-methoxy-1-methyl-1H-pyrazole-4-carboxamide]
IC50 (ASK1/MAP3K5): ≤ 0.1 µM | IC50 [1]: ≤ 1 µM

COc1nn(C)cc1C(=O)Nc1cccc(-c2nncn2C2CCCC2)n1 [Example 20, N-(6-(4-Cyclopentyl-4H-1,2,4-triazol-3-yl)pyridin-2-yl)-3-methoxy-1-methyl-1H-pyrazole-4-carboxamide]
IC50 (ASK1/MAP3K5): ≤ 0.1 µM | IC50 [1]: ≤ 1 µM

COc1nn(C)cc1C(=O)Nc1cccc(-c2nncn2C(C)(C)C)n1 [Example 21, N-(6-(4-(tert-Butyl)-4H-1,2,4-triazol-3-yl)pyridin-2-yl)-3-methoxy-1-methyl-1H-pyrazole-4-carboxamide]
IC50 (ASK1/MAP3K5): ≤ 0.1 µM | IC50 [1]: ≤ 1 µM

C[C@H](n1cnnc1-c1cccc(NC(=O)c2cn(C)nc2C(F)F)n1)C(F)(F)F [Example 22, (S)-3-(Difluoromethyl)-1-methyl-N-(6-(4-(1,1,1-trifluoropropan-2-yl)-4H-1,2,4-triazol-3-yl)pyridin-2-yl)-1H-pyrazole-4-carboxamide]
IC50 (ASK1/MAP3K5): 1 to 10 µM | IC50 [1]: 1 to 10 µM

Cn1cc(C(=O)Nc2cccc(-c3nncn3C3(C(F)(F)F)CC3)n2)c(C(F)F)n1 [Example 24, 3-(Difluoromethyl)-1-methyl-N-(6-(4-(1-(trifluoromethyl)cyclopropyl)-4H-1,2,4-triazol-3-yl)pyridin-2-yl)-1H-pyrazole-4-carboxamide]
IC50 (ASK1/MAP3K5): ≤ 0.1 µM | IC50 [1]: ≤ 1 µM

COc1nn(C)cc1C(=O)Nc1cccc(-c2nncn2C2(C(F)(F)F)CC2)n1 [Example 25, 3-Methoxy-1-methyl-N-(6-(4-(1-(trifluoromethyl)cyclopropyl)-4H-1,2,4-triazol-3-yl)pyridin-2-yl)-1H-pyrazole-4-carboxamide]
IC50 (ASK1/MAP3K5): ≤ 0.1 µM | IC50 [1]: ≤ 1 µM

COc1nn(C)cc1C(=O)Nc1cccc(-c2nncn2C(C)C(F)F)n1 (centres unmarked) [Example 26, N-(6-(4-(1,1-Difluoropropan-2-yl)-4H-1,2,4-triazol-3-yl)pyridin-2-yl)-3-methoxy-1-methyl-1H-pyrazole-4-carboxamide]
IC50 (ASK1/MAP3K5): ≤ 0.1 µM | IC50 [1]: ≤ 1 µM

COc1nn(C)cc1C(=O)Nc1cccc(-c2nncn2[C@@H](C)C(C)C)n1 [Example 29, (S)-3-Methoxy-1-methyl-N-(6-(4-(3-methylbutan-2-yl)-4H-1,2,4-triazol-3-yl)pyridin-2-yl)-1H-pyrazole-4-carboxamide]
IC50 (ASK1/MAP3K5): ≤ 0.1 µM | IC50 [1]: ≤ 1 µM

COc1nn(C)cc1C(=O)Nc1cccc(-c2nncn2C2CCC2(F)F)n1 (centres unmarked) [Example 30, N-(6-(4-(2,2-Difluorocyclobutyl)-4H-1,2,4-triazol-3-yl)pyridin-2-yl)-3-methoxy-1-methyl-1H-pyrazole-4-carboxamide]
IC50 (ASK1/MAP3K5): ≤ 0.1 µM | IC50 [1]: ≤ 1 µM

COc1nn(C)cc1C(=O)Nc1cccc(-c2nncn2C2CCN(C(=O)OC(C)(C)C)CC2)n1 [Example 38, tert-Butyl 4-(3-(6-(3-methoxy-1-methyl-1H-pyrazole-4-carboxamido)pyridin-2-yl)-4H-1,2,4-triazol-4-yl)piperidine-1-carboxylate]
IC50 (ASK1/MAP3K5): 0.1 to 1 µM | IC50 [1]: ≤ 1 µM

COc1nn(C)cc1C(=O)Nc1cccc(-c2nncn2[C@@H]2CCCNC2)n1 [Example 39, (R)-3-Methoxy-1-methyl-N-(6-(4-(piperidin-3-yl)-4H-1,2,4-triazol-3-yl)pyridin-2-yl)-1H-pyrazole-4-carboxamide]
IC50 (ASK1/MAP3K5): 1 to 10 µM | IC50 [1]: 1 to 10 µM

COc1nn(CC(C)C)cc1C(=O)Nc1cccc(-c2nncn2C(C)C)n1 [Example 42, 1-Isobutyl-N-(6-(4-isopropyl-4H-1,2,4-triazol-3-yl)pyridin-2-yl)-3-methoxy-1H-pyrazole-4-carboxamide]
IC50 (ASK1/MAP3K5): ≤ 0.1 µM | IC50 [1]: ≤ 1 µM
